Measured values taken from PMC6934184, “Selective DNA-PKcs inhibition extends the therapeutic index of localized radiotherapy and chemotherapy” (The Journal of Clinical Investigation, 2019).

Target: T1, PRKG1 (Homo sapiens, UniProt Q13976)
T1 construct: purchased Thermo Fisher Scientific (Life Technologies) SelectScreen
Experiment: SelectScreen Z'LYTE
Type: biochemical
Method in brief: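 SelectScreen broad panel; activity (Z'LYTE, Adapta) plus binding formats. ATP: Km app for CSF1R Z'LYTE; 10 for CAMK1 Adapta. Readout = % per kinase.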

T1 sequence (Q13976 whole entry): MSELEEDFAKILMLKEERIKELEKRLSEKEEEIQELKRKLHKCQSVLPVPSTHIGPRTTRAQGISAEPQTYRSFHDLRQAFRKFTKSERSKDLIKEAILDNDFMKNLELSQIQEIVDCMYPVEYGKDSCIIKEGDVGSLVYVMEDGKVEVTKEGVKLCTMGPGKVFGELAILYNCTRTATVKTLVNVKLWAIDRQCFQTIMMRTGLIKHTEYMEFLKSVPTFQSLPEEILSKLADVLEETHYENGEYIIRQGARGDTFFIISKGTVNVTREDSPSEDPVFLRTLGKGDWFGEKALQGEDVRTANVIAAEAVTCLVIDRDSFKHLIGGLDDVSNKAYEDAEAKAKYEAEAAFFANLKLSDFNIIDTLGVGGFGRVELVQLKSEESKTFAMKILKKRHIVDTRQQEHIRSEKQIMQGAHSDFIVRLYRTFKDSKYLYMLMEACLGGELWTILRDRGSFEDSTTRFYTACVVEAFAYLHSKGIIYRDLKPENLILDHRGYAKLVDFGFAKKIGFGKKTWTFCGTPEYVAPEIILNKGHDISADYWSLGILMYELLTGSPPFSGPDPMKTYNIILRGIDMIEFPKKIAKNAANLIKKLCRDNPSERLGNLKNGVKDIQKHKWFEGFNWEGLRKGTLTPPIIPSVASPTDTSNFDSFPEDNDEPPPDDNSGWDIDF

Compound: CN(C(=O)CN1CCOCC1)c1ccc2sc3c(-c4cccc5c(=O)cc(N6CC7CCC(C6)O7)oc45)cccc3c2c1 [NU5455]
- inhibition at 1 µM: -2.7%
